Data from a melting point compilation (Tetko et al.; mined from patent text by program, amines drawn as free bases though some values may be those of a salt).

| Structure (SMILES) | melting point |
| --- | --- |
| COC(=O)c1c(Cl)cc(C(F)(F)F)nc1C(F)(F)F | 48 to 49 °C |
| CN(C)c1nnc(-c2ccc3ncn(-c4ccc(OC(F)(F)F)cc4)c3c2)o1 | 224 to 225 °C |
| O=Cc1c(O)ccc2c1OCCO2 | 62 to 63 °C |
| CCCCCCCCCCCCCCCCOC(=O)c1ccc(Cl)c(Nc2cc(=O)n(-c3c(Cl)cc(Cl)cc3Cl)n2C(=O)OCc2ccccc2)c1 | 128 to 131 °C |
| Cc1sc(-c2cccc(F)c2)nc1O | 162 to 163 °C |
| Cc1ccc(C)c(OC(=O)c2c3ccccc3nc3ccccc23)c1 | 187 to 190 °C |
| CCOC(=O)c1c(C(F)(F)F)nc(C(F)(F)F)c(C(=O)O)c1Cl | 113 to 115 °C |
| O=[N+]([O-])c1cc(O)c(F)cc1Cl | 85 to 86 °C |
| COc1cc2c(=O)c(Cc3cccnc3)cn3c4cc(Br)ccc4c(c1)c23 | 169 to 172 °C |
| Cc1ccc2[nH]c(-c3ccc(S(N)(=O)=O)cc3)c(-c3ccccc3)c2c1 | 242 to 244 °C |
| CC(O)c1cnc2cc(Oc3cc(-c4ccc(C(F)(F)F)cc4)ncn3)ccc2c1 (stereo unspecified) | 156 to 157 °C |
| Cc1ccc2c(O)c3c(=O)[nH][nH]c(=O)c3nc2c1 | > 395 °C |
| CCOC(=O)N(C)NC1=Nc2sc(CC)cc2C(c2ccccc2Cl)=NC1 | 172 to 174 °C |
| COc1ccc(-c2ccc(=O)n(Cc3ccc(Cl)cc3F)c2)cn1 | 136 °C |
| Cc1ccc(S(=O)(=O)c2ncc(I)cn2)cc1 | 138 to 139 °C |
| NC(=O)/C=C1/c2cc(F)ccc2CC1O (stereo unspecified) | 201 to 202 °C |
| COc1cc(C)cc2nc(S(=O)(=O)Nc3cc(C)cnc3F)nn12 | 262 to 264 °C |
| O=C(O)c1cc(S(=O)Cc2ccccc2)c(Cl)cc1Cl (stereo unspecified) | 192 °C |
| COc1cc(C)c(C)cc1OC | 41 to 42 °C |
| CN(CCCN1CCC(=C2c3ccccc3C=Cc3ccccc32)CC1)c1ncccn1 | 129 °C |
| N#Cc1c[nH]cc1-c1ccc(Cl)cc1C(=O)c1ccccc1 | 175 to 177 °C |

| Structure (SMILES) | melting point |
| --- | --- |
| Nc1ccc(C=CC=CC=CC=Cc2ccc(N)cc2)cc1 | 262 to 264 °C |
| O=C1N(Cc2ccc(Cl)s2)c2cccc(-c3ccoc3)c2C12COc1cc3c(cc12)OCO3 (stereo unspecified) | 166 to 168 °C |
| CCOc1cccc2c1Sc1ccccc1C2 | 95 to 98 °C |
| OCCC(O)(c1ccc(Br)cc1)c1cccnc1 (stereo unspecified) | 130 to 132 °C |
| COCNC(=O)SC(C(=O)O)c1ccccc1 (stereo unspecified) | 111 to 112 °C |
| COc1cc(Nc2c(C#N)cnc3c(-c4ccc(CN(C)C)cc4)csc23)c(Cl)cc1Cl | 201 to 202 °C |
| COC(=O)C(=CN(C)C)n1ccc2ccc(-c3nccc(-c4ccccc4)n3)cc21 | 168 °C |
| O=C(O)c1ccc2[nH]cc(CCCCN3CC=C(c4ccccc4)CC3)c2c1 | 284 to 285 °C |
| O=c1[nH]c2cc(Cl)ccc2n1CCO | 176 to 178 °C |
| NC(=O)CC[C@H](NC(=O)OCc1ccccc1)C(=O)N[C@@H](Cc1ccc(O)cc1)C(=O)OCc1ccccc1 | 165 to 170 °C |
| O=C(c1ccc(O)cc1)c1c(-c2ccccc2)sc2cc(O)ccc12 | 245 to 246 °C |
| O=C(O)Cc1cccc(OCc2ccc3ccccc3n2)c1 | 128 to 130 °C |
| CC(=O)NC1Cc2ccc(O)cc2C1 (stereo unspecified) | 123 to 126 °C |
| CC(C)n1nc(-c2sc(C(N)=S)nc2-c2ccccc2)ccc1=O | > 250 °C |
| Cc1ccc(S(=O)(=O)N2CCCC(CSc3ccccc3)C2)cc1 (stereo unspecified) | 66.7 °C |
| O=C(O)C=C(Oc1ccc(OC(F)(F)F)cc1)C(=O)O | 208 to 210 °C |
| Clc1ccc2c(NCCCCCCCCCNc3ncnc4cc(Cl)ccc34)ncnc2c1 | 159 to 162 °C |
| O=C(O)C(=O)Nc1cccc(NC(=O)C(=O)O)c1Cl | > 320 °C |
| COc1ccc2cc(C=NCc3ccccc3)ccc2c1 | 115 to 117 °C |
| CC(=O)N(C)c1ccc(-c2cc3ccc(Br)cn3c2)cc1C | 197 to 198 °C |

The remaining lines, values ahead:

| melting point | Structure (SMILES) |
| --- | --- |
| 161 to 163 °C | COc1ccc(C(Cc2ccncc2)c2ccc(C(=O)O)cc2)cc1OC1CCCC1 (stereo unspecified) |
| 153 to 154 °C | CCCNc1cccc2c1C(=O)c1cccc(NCCC)c1C2=O |
| 105 to 109 °C | Cc1ccc(-c2nc(-c3ccc(C)cc3C)nc(-c3ccc(OCC(=O)OC4CC(C)(C)N(OC5CCCCC5)C(C)(C)C4)cc3O)n2)c(C)c1 |
| 98 to 100 °C | Cc1nnc(C(O)CCCCCCOc2ccc(OCc3ccccc3)cc2)o1 (stereo unspecified) |
| 180 °C | CCOC(=O)c1nccn1C1Cc2ccc(Cl)cc2C1=O (stereo unspecified) |
| 94 to 95 °C | CN(C)CCN1C(=O)C(N)C(=O)N(CC2CCCCC2)c2ccccc21 (stereo unspecified) |
| 204 to 206 °C | Cc1nc(C(C)C)nc(C)c1N1CCCn2c1nc1c(Cl)ccc(C(OC(F)F)C(F)(F)F)c12 (stereo unspecified) |
| 105 to 106 °C | CCCCOC1CCCC(C2NC(=O)C2C(C)O[Si](C)(C)C(C)(C)C)C1O (stereo unspecified) |
| 140 °C | Cc1c(NC(=O)OCc2ccccc2)cccc1C(C[N+](=O)[O-])c1c[nH]c2ccc(N3CCOCC3)cc12 (stereo unspecified) |
| 150 to 154 °C | CC(C)(C)OC(=O)N[C@H]1CC[C@H](CCN2CCN(c3cccc(Cl)c3Cl)CC2)CC1 |
| 158 to 159 °C | Fc1ccc2c(C3CCC4(CC3)OCCO4)c[nH]c2c1 |
| 242 to 245 °C | CCCc1ccc(O)c2c(=O)cc(-c3nnn[nH]3)oc12 |
| 177 to 181 °C | CCOc1cc2ncc(C#N)c(Nc3ccc(F)cc3)c2cc1OCC |
| 138 to 140 °C | CCSC(C)(C)C(=O)CC(=O)Nc1cc([N+](=O)[O-])ccc1OC |
| 128 to 130 °C | CCSc1cc(C(C)C)ccc1N(CC)c1nc(C)cc(C)n1 |
| 120 °C | CNC(=O)NCc1cncn1C1c2ccccc2CCC1(C)C (stereo unspecified) |
| 125 to 128 °C | Cc1cc(C)c2c(c1C)OC1(CCN(Cc3ccccc3)CC1)C2c1ccc(C(C)C)cc1 (stereo unspecified) |
| 145 to 147 °C | CCOC1Nc2c(ccc(C)c2OC(C)=O)C(=O)N2CCCC12 (stereo unspecified) |
| 212 °C | O=C1c2cccc(NC(=S)Nc3ncccn3)c2C2CCCCN12 (stereo unspecified) |
| 195 to 199 °C | CC(=O)c1cc2c(cc1NC(=O)C(O)(CC(C)(C)c1ccccc1)C(F)(F)F)COC2=O (stereo unspecified) |
| 195 to 197 °C | O=C1NCCc2c1cc1n2CCCC1 |
| 252 °C | O=C(N[C@H]1CC[C@H](CCN2CCN(c3nccc4c3OCC4)CC2)CC1)c1ccc(Cl)cc1 |
| 100 to 102 °C | CC(C)Oc1ccc2c(c1)OCC1c3ccccc3OC21 (stereo unspecified) |
| 153 to 154 °C | COc1ccc(CNc2nc(N3CCCC3CO)nc(OC)c2C(=O)NCc2ncccn2)cc1Cl (stereo unspecified) |
| 165 to 167 °C | COc1cccc(CNC(=O)c2cc3c(=O)n(CCOc4ccc(Br)cc4)c(=O)n(C)c3s2)c1 |
| 216 to 217 °C | CC1(C)COP(=O)(O)OC1c1cccc2ccccc12 (stereo unspecified) |
| 61 to 62 °C | CCCCCCCCCCCCCCCCCCOc1ccc(OCc2ccccc2)c(C(=O)N(CC(=O)OCC)CC(=O)OCC)c1 |
| 174 °C | COc1ccc2c(c1)OC(C)(C)C(NC(=O)c1cc(Cl)ccc1OC)C2=O (stereo unspecified) |
| 103 to 104 °C | CCOP(=O)(/C=C\c1cnc(-c2ccccc2)nc1OCc1ccc(OCc2nc(-c3ccco3)oc2C)c(OC)c1)OCC |
| 169 to 170 °C | O=C(OC1CCCCCCC1)c1cc2cc(CCl)ccc2oc1=O |
